Counter-ions that a name gives are not always drawn.
Biological target: T1, human TRPM8 (Homo sapiens, UniProt Q7Z2W7)
T1 construct: expressed in transfected cells; host or cells: Chinese hamster ovary (CHO) cells, T-REx tetracycline-inducible expression system (Invitrogen); co-transfected with pcDNA3.1 aequorin
Test: Luminescence readout assay for measuring intracellular calcium (aequorin, CHO cells expressing human TRPM8; icilin, L-menthol or cold activation)
Assay type: cell-based
Conditions: not given
How it was run: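 Activation was by 1 μM icilin, 100 μM L-menthol (test compound 2.5 min ahead) or cold buffer below 10° C (compound 1 min ahead). Calcium rise measured as aequorin luminescence in CHO cells with tetracycline-inducible human TRPM8.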

T1 sequence (Q7Z2W7 whole entry): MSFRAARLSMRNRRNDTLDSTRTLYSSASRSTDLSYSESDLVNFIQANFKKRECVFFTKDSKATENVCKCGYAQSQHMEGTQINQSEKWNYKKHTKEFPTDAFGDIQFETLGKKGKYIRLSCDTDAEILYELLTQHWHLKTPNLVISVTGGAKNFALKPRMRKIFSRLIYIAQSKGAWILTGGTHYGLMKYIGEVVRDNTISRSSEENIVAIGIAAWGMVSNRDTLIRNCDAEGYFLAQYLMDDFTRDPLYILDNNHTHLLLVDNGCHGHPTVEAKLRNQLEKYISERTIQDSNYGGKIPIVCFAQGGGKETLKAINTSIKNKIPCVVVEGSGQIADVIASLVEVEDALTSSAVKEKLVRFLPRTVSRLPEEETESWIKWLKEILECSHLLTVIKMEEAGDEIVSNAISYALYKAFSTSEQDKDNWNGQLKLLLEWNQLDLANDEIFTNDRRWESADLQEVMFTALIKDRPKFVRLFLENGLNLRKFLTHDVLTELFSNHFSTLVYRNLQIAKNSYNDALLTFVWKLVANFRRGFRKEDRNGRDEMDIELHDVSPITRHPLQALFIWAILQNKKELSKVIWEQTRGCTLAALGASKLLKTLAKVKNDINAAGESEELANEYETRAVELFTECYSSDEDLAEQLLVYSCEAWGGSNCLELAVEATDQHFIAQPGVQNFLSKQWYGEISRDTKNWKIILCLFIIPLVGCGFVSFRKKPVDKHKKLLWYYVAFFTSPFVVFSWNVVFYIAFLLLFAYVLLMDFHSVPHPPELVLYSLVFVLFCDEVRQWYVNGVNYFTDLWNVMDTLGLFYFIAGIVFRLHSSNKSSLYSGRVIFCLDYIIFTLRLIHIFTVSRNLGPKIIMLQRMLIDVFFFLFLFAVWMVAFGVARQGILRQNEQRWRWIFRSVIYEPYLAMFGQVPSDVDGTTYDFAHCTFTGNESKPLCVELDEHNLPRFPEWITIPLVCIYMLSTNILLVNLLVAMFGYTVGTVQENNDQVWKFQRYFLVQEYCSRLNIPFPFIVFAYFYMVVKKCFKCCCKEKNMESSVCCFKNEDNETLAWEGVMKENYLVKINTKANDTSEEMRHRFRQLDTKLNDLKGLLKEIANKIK

Structure (SMILES) | IC50 [nM]
O=C1CCN(C(=O)N[C@]2(c3ccc(OC(F)(F)F)c(F)c3)CCOc3cccnc32)CC1 [Example 103, (S)-N-(4-(3-fluoro-4-(trifluoromethoxy)phenyl)-3,4-dihydro-2H-pyrano[3,2-b]pyridin-4-yl)-4-oxopiperidine-1-carboxamide] | 278

Same assay, conditions: CHO cells expressing human TRPM8, icilin activation (1 μM), aequorin luminescence; read-out: hTRPM8 IC50

Structure (SMILES) | IC50 [nM]
O=C(N[C@]1(c2ccc(OC(F)(F)F)c(F)c2)CCOc2cccnc21)N1CCCC1 [Example 104, (S)-N-(4-(3-fluoro-4-(trifluoromethoxy)phenyl)-3,4-dihydro-2H-pyrano[3,2-b]pyridin-4-yl)pyrrolidine-1-carboxamide] | 85
Cc1noc(C)c1-c1ccc([C@@]2(NC(=O)c3ccc(F)cc3)CCOc3cccnc32)cc1 [Example 125, (S)-N-(4-(4-(3,5-dimethylisoxazol-4-yl)phenyl)-3,4-dihydro-2H-pyrano[3,2-b]pyridin-4-yl)-4-fluorobenzamide] | 429
O=C(N[C@]1(c2ccc(OC(F)(F)F)cc2)CCOc2cccnc21)c1cccs1 [Example 229, (S)-N-(4-(4-(trifluoromethoxy)phenyl)-3,4-dihydro-2H-pyrano[3,2-b]pyridin-4-yl)thiophene-2-carboxamide fomiate] | 145
O=C(N[C@]1(c2ccc(OC(F)(F)F)c(F)c2)CCOc2cccnc21)c1ccc(-c2ncon2)cn1 [Example 282, (S)—N-(4-(3-fluoro-4-(trifluoromethoxy)phenyl)-3,4-dihydro-2H-pyrano[3,2-b]pyridin-4-yl)-5-(1,2,4-oxadiazol-3-yl)picolinamide] | 7
O=C(N[C@]1(c2ccc(F)c(C(F)(F)F)c2)CCOc2cccnc21)c1ccc(=O)[nH]c1 [Example 185, (S)-N-(4-(4-fluoro-3-(trifluoromethyl)phenyl)-3,4-dihydro-2H-pyrano[3,2-b]pyridin-4-yl)-6-oxo-1,6-dihydropyridine-3-carboxamide] | 89
COc1ccc(-c2ccc([C@@]3(NC(=O)c4ccc(F)cc4)CCOc4cccnc43)cc2)c(CO)c1 [Example 136, (S)-4-fluoro-N-(4-(2′-(hydroxymethyl)-4′-methoxy-[1,1′-biphenyl]-4-yl)-3,4-dihydro-2H-pyrano[3,2-b]pyridin-4-yl)benzamide] | 784
COC(=O)c1cccc(C(=O)N[C@]2(c3ccc(OC(F)(F)F)c(F)c3)CCOc3cccnc32)c1 [Example 280, (S)-methyl 3-((4-(3-fluoro-4-(trifluoromethoxy)phenyl)-3,4-dihydro-2H-pyrano[3,2-b]pyridin-4-yl)carbamoyl) benzoate] | 26
O=C(N[C@]1(c2ccc(OC(F)(F)F)cc2)CCOc2cccnc21)c1ccc2c(=O)[nH]ccc2c1 [Example 223, (S)-1-oxo-N-(4-(4-(trifluoromethoxy)phenyl)-3,4-dihydro-2H-pyrano[3,2-b]pyridin-4-yl)-1,2-dihydroisoquinoline-6-carboxamide formate] | 10
O=C(N[C@]1(c2ccc(OC(F)(F)F)cc2)CCOc2cccnc21)c1c[nH]c(=O)c2ccccc12 [Example 272, (S)-1-oxo-N-(4-(4-(trifluoromethoxy)phenyl)-3,4-dihydro-2H-pyrano[3,2-b]pyridin-4-yl)-1,2-dihydroisoquinoline-4-carboxamide formate] | 183
O=C(O)c1ccnc(C(=O)N[C@]2(c3ccc(OC(F)(F)F)c(F)c3)CCOc3cccnc32)c1 [Example 330, (S)-2-((4-(3-fluoro-4-(trifluoro-methoxy)phenyl)-3,4-dihydro-2H-pyrano[3,2-b]pyridin-4-yl)carbamoyl) isonicotinic acid] | 94
O=C(N[C@]1(c2ccc(OC(F)(F)F)c(F)c2)CC(=O)c2cccnc21)c1ccc(=O)[nH]c1 [Example 165, (S)-N-(7-(3-fluoro-4-(trifluoromethoxy)phenyl)-5-oxo-6,7-dihydro-5H-cyclopenta[b]pyridin-7-yl)-6-oxo-1,6-dihydropyridine-3-carboxamide] | 531
O=C(Nc1ccc(Cl)nc1)N[C@]1(c2ccc(OC(F)(F)F)c(F)c2)CCOc2cccnc21 [Example 69, (S)-1-(6-chloropyridin-3-yl)-3-(4-(3-fluoro-4-(trifluoromethoxy)phenyl)-3,4-dihydro-2H-pyrano[3,2-b]pyridin-4-yl)urea] | 36
O=C(N[C@]1(c2ccc(OC(F)(F)F)c(F)c2)CCOc2cccnc21)c1ccc(Br)o1 [Example 208, (S)-5-bromo-N-(4-(3-fluoro-4-(trifluoromethoxy)phenyl)-3,4-dihydro-2H-pyrano[3,2-b]pyridin-4-yl)furan-2-carboxamide] | 11
O=C(N[C@]1(c2ccc(OC(F)(F)F)cc2)CCOc2cccnc21)c1nnc[nH]1 [Example 212, (S)-N-(4-(4-(trifluoromethoxy)phenyl)-3,4-dihydro-2H-pyrano[3,2-b]pyridin-4-yl)-4H-1,2,4-triazole-3-carboxamide formate] | 1690
NC(=O)c1ccc(C(=O)N[C@]2(c3ccc(OC(F)(F)F)c(F)c3)CCOc3cccnc32)cc1 [Example 195, (S)-N1-(4-(3-fluoro-4-(trifluoromethoxy)phenyl)-3,4-dihydro-2H-pyrano[3,2-b]pyridin-4-yl) terephthalamide 2,2,2-trifluoroacetate] | 6
O=C(N[C@]1(c2ccc(OC(F)(F)F)c(F)c2)CCOc2cccnc21)c1cnsc1 [Example 190, (S)-N-(4-(3-fluoro-4-(trifluoromethoxy)phenyl)-3,4-dihydro-2H-pyrano[3,2-b]pyridin-4-yl) isothiazole-4-carboxamide] | 152
CCOC(=O)c1cc(C(=O)N[C@]2(c3ccc(OC(F)(F)F)c(F)c3)CCOc3cccnc32)cc(C(=O)OCC)c1 [Example 192, (S)-diethyl 5-((4-(3-fluoro-4-(trifluoromethoxy)phenyl)-3,4-dihydro-2H-pyrano[3,2-b]pyridin-4-yl)carbamoyl) isophthalate] | 94
N#Cc1ccc(-c2ccc([C@@]3(NC(=O)c4ccc(F)cc4)CCOc4cccnc43)cc2)cc1 [Example 153, (S)—N-(4-(4′-cyano-[1,1′-biphenyl]-4-yl)-3,4-dihydro-2H-pyrano[3,2-b]pyridin-4-yl)-4-fluorobenzamide] | 112
COC(=O)c1ccc(C(=O)NC2(c3ccc(OC(F)(F)F)c(F)c3)CCOc3cccnc32)nc1 (centres unmarked) [Example 30, methyl 6-((4-(3-fluoro-4-(trifluoromethoxy)phenyl)-3,4-dihydro-2H-pyrano[3,2-b]pyridin-4-yl)carbamoyl)nicotinate] | 19
O=C(N[C@]1(c2ccc(-c3ccc(F)c(CO)c3)cc2)CCOc2cccnc21)c1ccc(F)cc1 [Example 122, (S)-4-fluoro-N-(4-(4′-fluoro-3′-(hydroxymethyl)-[1,1-biphenyl]-4-yl)-3,4-dihydro-2H-pyrano[3,2-b]pyridin-4-yl)benzamide] | 1520
O=C(N[C@]1(c2ccc(OC(F)(F)F)cc2)CCOc2cccnc21)c1nc2ccccc2[nH]1 [Example 241, (S)-N-(4-(4-(trifluoromethoxy)phenyl)-3,4-dihydro-2H-pyrano[3,2-b]pyridin-4-yl)-1H-benzo[d]imidazole-2-carboxamide formate] | 769
O=C(NC1(c2ccc(OC(F)(F)F)cc2)CCOc2cccnc21)c1ccc(F)cc1 (centres unmarked) [Example 8, 4-fluoro-N-(4-(4-(trifluoromethoxy)phenyl)-3,4-dihydro-2H-pyrano[3,2-b]pyridin-4-yl)benzamide] | 75

From patent US20150031668A1, “CHROMAN DERIVATIVES AS TRPM8 INHIBITORS” (AMGEN INC., priority 2013, published 2015)
